pEC50, pIC50: −log10 of the molar value. Converted amounts (≈) assume the structure as drawn.
Columns and labels:
[1] = Drug uptake in tumor of SCID mouse xenografted with PTEN-deficient human PC3 cells at 300 mg/kg, po BID measured after 24 hrs; assay type: ADME, organism-based, Neoplasm, PC-3; parameters: dose 300 mg/kg, route oral; details: read-out: Drug uptake
[2] = target: T1, Phosphatidylinositol 4,5-bisphosphate 3-kinase catalytic subunit beta isoform (Homo sapiens, UniProt P42338); assay: Inhibition of human PI3Kbeta-mediated Akt phosphorylation at T308 residue expressed in PTEN-deficient human PC3 cells after 2 hrs by Western blot analysis; assay type: cell-based, PC-3
[3] = Terminal half life in CB17/ICR-Prkdc SCID mouse at 10 mg/kg, po; assay type: ADME, organism-based; parameters: dose 10 mg/kg, route oral; details: in vivo, read-out: beta t1/2 (converted)
[4] = Drug uptake in tumor of SCID mouse xenografted with PTEN-deficient human PC3 cells at 300 mg/kg, po BID measured after 1 hr; assay type: ADME, organism-based, Neoplasm, PC-3; parameters: dose 300 mg/kg, route oral; details: read-out: Drug uptake
[5] = target: T1, Phosphatidylinositol 4,5-bisphosphate 3-kinase catalytic subunit beta isoform; assay: Inhibition of human PI3Kbeta-mediated Akt phosphorylation at Ser473 residue expressed in PTEN-deficient human PC3 cells by chemiluminescence assay; assay type: cell-based, PC-3
[6] = Apparent permeability of the compound across human Caco2 cells; assay type: ADME, cell-based; details: Caco-2
Nucleic Acid = assay: Ratio of drug uptake in plasma to tumor of SCID mouse xenografted with PTEN-deficient human PC3 cells at 300 mg/kg, po BID measured after 0.5 to 24 hrs; assay type: ADME, organism-based, PC-3; parameters: dose 300 mg/kg, route oral; details: in vivo
[7] = Plasma concentration in SCID mouse xenografted with PTEN-deficient human PC3 cells at 300 mg/kg, po BID measured after 0.5 hrs; assay type: ADME, organism-based, PC-3; parameters: dose 300 mg/kg, route oral
[8] = Inhibition of mTORC2-mediated Akt phosphorylation at Ser473 residue in PTEN-deficient human PC3 cells after 2 hrs by Western blot analysis; assay type: cell-based; details: PC-3, 2 h
[9] = target: T2, Phosphatidylinositol 4,5-bisphosphate 3-kinase catalytic subunit alpha isoform (Homo sapiens, UniProt P42336); assay: Inhibition of N-terminus poly-His tagged human PI3Kalpha expressed in baculovirus infected insect sf9 cells coexpressing p85alpha using PI(4,5)P2 as substrate preincubated with compound for 15 mins measured after 10 mins by HTRF assay
[10] = AUC (0 to Tlast) in CB17/ICR-Prkdc SCID mouse at 6 mg/kg, iv; assay type: ADME, organism-based; parameters: dose 6 mg/kg, route intravenous; details: plasma
Mus musculus [11] = assay: Toxicity in SCID mouse bearing PTEN-deficient human PC3 cells at 300 mg/kg, po BID for 9 days; assay type: organism-based, PC-3; parameters: dose 300 mg/kg, route oral; details: in vivo, 216 h
[12] = Oral bioavailability in CB17/ICR-Prkdc SCID mouse at 10 mg/kg; assay type: ADME, organism-based; details: in vivo
Mus musculus [13] = assay: Tlast in CB17/ICR-Prkdc SCID mouse at 10 mg/kg, po; assay type: ADME, organism-based; parameters: dose 10 mg/kg, route oral; details: in vivo
Mus musculus [14] = assay: Inhibition of Akt phosphorylation at T308 residue in SCID mouse bearing human PTEN-deficient PC3 cells at 300 mg/kg, po BID measured after 6 hrs; assay type: functional; details: PC-3, 6 h
[15] = C0 in CB17/ICR-Prkdc SCID mouse at 6 mg/kg, iv; assay type: ADME, organism-based; parameters: dose 6 mg/kg, route intravenous; details: in vivo
[16] = Plasma concentration in SCID mouse xenografted with PTEN-deficient human PC3 cells at 300 mg/kg, po BID measured after 6 hrs; assay type: ADME, organism-based, PC-3; parameters: dose 300 mg/kg, route oral
[17] = Cmax in CB17/ICR-Prkdc SCID mouse at 10 mg/kg, po; assay type: ADME, organism-based; parameters: dose 10 mg/kg, route oral; details: in vivo
[18] = target: T1, Phosphatidylinositol 4,5-bisphosphate 3-kinase catalytic subunit beta isoform; assay: Inhibition of N-terminus poly-His tagged human PI3Kbeta expressed in baculovirus infected insect […] cells coexpressing p85alpha using PI(4,5)P2 as substrate preincubated with compound for 15 mins measured after 10 mins by HTRF assay
[19] = Drug uptake in tumor of SCID mouse xenografted with PTEN-deficient human PC3 cells at 300 mg/kg, po BID measured after 6 hrs; assay type: ADME, organism-based, Neoplasm, PC-3; parameters: dose 300 mg/kg, route oral; details: read-out: Drug uptake
Mus musculus [20] = assay: Toxicity in SCID mouse bearing PTEN-deficient human PC3 cells assessed as weight loss at 300 mg/kg, po BID for 9 days; assay type: organism-based, PC-3; parameters: dose 300 mg/kg, route oral; details: in vivo, 216 h
Mus musculus [21] = assay: Inhibition of Akt phosphorylation at T308 residue in tumor of po dosed SCID mouse bearing human PTEN-deficient PC3 cells administered BID; assay type: functional, organism-based; details: PC-3
[22] = Plasma concentration in SCID mouse xenografted with PTEN-deficient human PC3 cells at 300 mg/kg, po BID measured after 24 hrs; assay type: ADME, organism-based, PC-3; parameters: dose 300 mg/kg, route oral
[23] = Clearance in CB17/ICR-Prkdc SCID mouse at 6 mg/kg, iv; assay type: ADME, organism-based; parameters: dose 6 mg/kg, route intravenous; details: in vivo
Mus musculus [24] = assay: Tlast in CB17/ICR-Prkdc SCID mouse at 6 mg/kg, iv; assay type: ADME, organism-based; parameters: dose 6 mg/kg, route intravenous; details: in vivo
[25] = Thermodynamic solubility of the compound in phosphate buffer at pH 7.4 after 16 hrs by HPLC analysis; assay type: physicochemical; details: read-out: Therm_solubility
Plasma [26] = assay: Plasma concentration in SCID mouse xenografted with PTEN-deficient human PC3 cells at 300 mg/kg, po BID measured after day 1; assay type: ADME, organism-based, PC-3; parameters: dose 300 mg/kg, route oral; details: in vivo
[27] = target: T3, Phosphatidylinositol 4,5-bisphosphate 3-kinase catalytic subunit gamma isoform (Homo sapiens, UniProt P48736); assay: Inhibition of N-terminus poly-His tagged human PI3Kgamma expressed in baculovirus infected insect sf9 cells using PI(4,5)P2 as substrate preincubated with compound for 15 mins measured after 10 mins by HTRF assay
[28] = target: T1, Phosphatidylinositol 4,5-bisphosphate 3-kinase catalytic subunit beta isoform; assay: Inhibition of human PI3Kbeta-mediated Akt phosphorylation at Ser473 residue expressed in mouse MEF-3T3 cells after 0.5 to 2 hrs by Western blot analysis; assay type: cell-based
[29] = target: T3, Phosphatidylinositol 4,5-bisphosphate 3-kinase catalytic subunit gamma isoform; assay: Inhibition of human PI3Kgamma-mediated Akt phosphorylation at Ser473 residue expressed in mouse RAW264.7 cells after 0.5 to 2 hrs by Western blot analysis; assay type: cell-based
[30] = Plasma concentration in SCID mouse xenografted with PTEN-deficient human PC3 cells at 300 mg/kg, po BID measured after 1 hr; assay type: ADME, organism-based, PC-3; parameters: dose 300 mg/kg, route oral
[31] = Plasma concentration in SCID mouse xenografted with PTEN-deficient human PC3 cells at 300 mg/kg, po BID measured after 3 hrs; assay type: ADME, organism-based, PC-3; parameters: dose 300 mg/kg, route oral
Cytochrome P450 3A4 = Cytochrome P450 3A4 (Homo sapiens, UniProt P08684); assay: Inhibition of human recombinant CPY3A4
[32] = AUC (0 to Tlast) in CB17/ICR-Prkdc SCID mouse at 10 mg/kg, po; assay type: ADME, organism-based; parameters: dose 10 mg/kg, route oral; details: plasma
[33] = AUC (0 to 24 hrs) in CB17/ICR-Prkdc SCID mouse at 6 mg/kg, iv; assay type: ADME, organism-based; parameters: time < 24 hr, dose 6 mg/kg, route intravenous; details: plasma
Plasma [34] = assay: Plasma concentration in SCID mouse xenografted with PTEN-deficient human PC3 cells at 300 mg/kg, po BID measured after day 4; assay type: ADME, organism-based, PC-3; parameters: dose 300 mg/kg, route oral; details: in vivo
[35] = Tmax in CB17/ICR-Prkdc SCID mouse at 10 mg/kg, po; assay type: ADME, organism-based; parameters: dose 10 mg/kg, route oral; details: in vivo
[36] = Terminal half life in CB17/ICR-Prkdc SCID mouse at 6 mg/kg, iv; assay type: ADME, organism-based; parameters: dose 6 mg/kg, route intravenous; details: in vivo, read-out: beta t1/2 (converted)
[37] = target: T2, Phosphatidylinositol 4,5-bisphosphate 3-kinase catalytic subunit alpha isoform; assay: Inhibition of human PI3Kalpha-mediated Akt phosphorylation at Ser473 residue expressed in human H460 cells after 0.5 to 2 hrs by Western blot analysis; assay type: cell-based
[38] = Drug uptake in tumor of SCID mouse xenografted with PTEN-deficient human PC3 cells at 300 mg/kg, po BID measured after 0.5 hrs; assay type: ADME, organism-based, Neoplasm, PC-3; parameters: dose 300 mg/kg, route oral; details: read-out: Drug uptake
[39] = target: Serine/threonine-protein kinase mTOR (Homo sapiens, UniProt P42345); assay: Inhibition of mTOR

T1 sequence (P42338 whole entry, canonical isoform): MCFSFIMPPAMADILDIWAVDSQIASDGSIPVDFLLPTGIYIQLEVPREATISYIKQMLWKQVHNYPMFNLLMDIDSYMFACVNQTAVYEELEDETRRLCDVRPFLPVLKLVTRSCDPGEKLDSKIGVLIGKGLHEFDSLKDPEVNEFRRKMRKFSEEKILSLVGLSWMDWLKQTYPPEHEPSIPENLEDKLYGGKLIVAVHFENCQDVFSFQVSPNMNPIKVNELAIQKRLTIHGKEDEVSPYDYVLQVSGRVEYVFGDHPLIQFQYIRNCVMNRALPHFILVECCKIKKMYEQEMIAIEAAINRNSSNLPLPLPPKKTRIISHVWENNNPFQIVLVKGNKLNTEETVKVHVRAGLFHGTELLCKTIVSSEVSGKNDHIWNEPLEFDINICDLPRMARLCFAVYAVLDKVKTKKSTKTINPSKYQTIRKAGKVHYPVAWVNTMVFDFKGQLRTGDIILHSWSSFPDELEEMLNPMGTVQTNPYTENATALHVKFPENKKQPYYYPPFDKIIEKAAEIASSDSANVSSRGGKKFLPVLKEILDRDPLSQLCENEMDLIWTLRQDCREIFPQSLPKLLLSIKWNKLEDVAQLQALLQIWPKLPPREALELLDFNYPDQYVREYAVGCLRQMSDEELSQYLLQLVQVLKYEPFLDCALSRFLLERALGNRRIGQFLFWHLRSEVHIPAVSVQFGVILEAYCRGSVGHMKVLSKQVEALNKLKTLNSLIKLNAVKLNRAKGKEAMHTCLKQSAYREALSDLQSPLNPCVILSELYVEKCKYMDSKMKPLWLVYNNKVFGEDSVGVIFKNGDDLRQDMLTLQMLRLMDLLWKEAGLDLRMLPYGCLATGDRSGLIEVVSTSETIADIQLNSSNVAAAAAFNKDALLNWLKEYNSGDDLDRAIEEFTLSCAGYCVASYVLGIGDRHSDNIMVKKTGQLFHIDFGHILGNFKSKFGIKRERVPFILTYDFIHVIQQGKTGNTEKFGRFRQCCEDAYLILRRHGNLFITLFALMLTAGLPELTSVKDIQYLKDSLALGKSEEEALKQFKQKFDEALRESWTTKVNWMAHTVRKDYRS
T3 sequence (P48736 whole entry, canonical isoform): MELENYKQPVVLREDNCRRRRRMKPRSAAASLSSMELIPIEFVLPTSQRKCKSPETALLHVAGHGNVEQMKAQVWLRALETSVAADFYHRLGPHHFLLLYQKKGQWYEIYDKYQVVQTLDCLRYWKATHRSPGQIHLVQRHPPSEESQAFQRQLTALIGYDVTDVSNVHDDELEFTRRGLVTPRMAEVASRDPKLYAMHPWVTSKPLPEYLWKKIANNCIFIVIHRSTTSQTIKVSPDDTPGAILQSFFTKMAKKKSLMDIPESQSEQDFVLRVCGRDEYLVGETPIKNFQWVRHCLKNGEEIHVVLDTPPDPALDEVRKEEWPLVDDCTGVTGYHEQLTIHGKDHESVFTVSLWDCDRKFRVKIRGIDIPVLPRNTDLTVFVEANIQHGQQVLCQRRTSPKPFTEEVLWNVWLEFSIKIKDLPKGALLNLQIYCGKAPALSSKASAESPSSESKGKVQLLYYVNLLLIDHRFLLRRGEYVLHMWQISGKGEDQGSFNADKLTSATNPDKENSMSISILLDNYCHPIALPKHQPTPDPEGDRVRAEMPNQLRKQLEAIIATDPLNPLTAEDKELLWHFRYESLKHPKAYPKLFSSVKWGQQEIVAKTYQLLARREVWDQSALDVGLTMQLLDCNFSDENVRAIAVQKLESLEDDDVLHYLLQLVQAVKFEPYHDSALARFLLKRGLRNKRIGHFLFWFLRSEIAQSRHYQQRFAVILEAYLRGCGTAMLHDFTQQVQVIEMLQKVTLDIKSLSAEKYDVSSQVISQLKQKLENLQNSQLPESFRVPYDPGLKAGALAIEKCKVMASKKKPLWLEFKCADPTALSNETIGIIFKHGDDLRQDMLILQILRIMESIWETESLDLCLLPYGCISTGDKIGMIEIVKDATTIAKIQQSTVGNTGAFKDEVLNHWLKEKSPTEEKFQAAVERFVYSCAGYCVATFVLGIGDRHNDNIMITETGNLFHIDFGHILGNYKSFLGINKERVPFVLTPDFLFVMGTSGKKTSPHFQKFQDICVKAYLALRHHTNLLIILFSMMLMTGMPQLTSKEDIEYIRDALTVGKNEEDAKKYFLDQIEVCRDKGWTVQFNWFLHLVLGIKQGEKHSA
T2 sequence (P42336 whole entry, canonical isoform): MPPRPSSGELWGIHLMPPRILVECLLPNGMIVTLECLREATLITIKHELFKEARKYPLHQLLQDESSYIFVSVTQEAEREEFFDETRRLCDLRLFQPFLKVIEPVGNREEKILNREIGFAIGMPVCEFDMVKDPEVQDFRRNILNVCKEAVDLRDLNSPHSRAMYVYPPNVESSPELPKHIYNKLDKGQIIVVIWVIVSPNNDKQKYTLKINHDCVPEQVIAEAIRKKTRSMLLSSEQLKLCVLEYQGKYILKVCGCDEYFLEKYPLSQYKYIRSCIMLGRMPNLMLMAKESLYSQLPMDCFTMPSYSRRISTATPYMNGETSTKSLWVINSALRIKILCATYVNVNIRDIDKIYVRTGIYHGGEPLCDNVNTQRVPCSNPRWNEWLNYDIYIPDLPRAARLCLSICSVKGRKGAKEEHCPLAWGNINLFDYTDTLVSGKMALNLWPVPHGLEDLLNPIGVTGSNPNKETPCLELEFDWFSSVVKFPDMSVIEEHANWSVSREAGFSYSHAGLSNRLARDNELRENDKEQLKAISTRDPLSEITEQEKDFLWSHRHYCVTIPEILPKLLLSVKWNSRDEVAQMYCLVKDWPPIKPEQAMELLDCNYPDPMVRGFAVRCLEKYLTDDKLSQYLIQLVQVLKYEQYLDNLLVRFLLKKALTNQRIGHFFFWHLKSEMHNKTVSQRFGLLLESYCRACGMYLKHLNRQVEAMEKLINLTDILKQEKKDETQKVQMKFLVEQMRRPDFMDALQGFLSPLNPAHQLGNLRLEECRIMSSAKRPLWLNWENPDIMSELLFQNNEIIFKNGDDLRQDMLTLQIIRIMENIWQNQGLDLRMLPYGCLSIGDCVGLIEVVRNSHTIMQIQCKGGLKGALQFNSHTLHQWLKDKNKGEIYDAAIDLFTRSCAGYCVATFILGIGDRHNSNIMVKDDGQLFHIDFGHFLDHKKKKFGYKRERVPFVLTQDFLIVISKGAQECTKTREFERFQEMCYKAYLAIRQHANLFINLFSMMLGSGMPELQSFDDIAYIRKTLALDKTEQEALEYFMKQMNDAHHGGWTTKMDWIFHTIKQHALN
Cytochrome P450 3A4, sequence (P08684 whole entry): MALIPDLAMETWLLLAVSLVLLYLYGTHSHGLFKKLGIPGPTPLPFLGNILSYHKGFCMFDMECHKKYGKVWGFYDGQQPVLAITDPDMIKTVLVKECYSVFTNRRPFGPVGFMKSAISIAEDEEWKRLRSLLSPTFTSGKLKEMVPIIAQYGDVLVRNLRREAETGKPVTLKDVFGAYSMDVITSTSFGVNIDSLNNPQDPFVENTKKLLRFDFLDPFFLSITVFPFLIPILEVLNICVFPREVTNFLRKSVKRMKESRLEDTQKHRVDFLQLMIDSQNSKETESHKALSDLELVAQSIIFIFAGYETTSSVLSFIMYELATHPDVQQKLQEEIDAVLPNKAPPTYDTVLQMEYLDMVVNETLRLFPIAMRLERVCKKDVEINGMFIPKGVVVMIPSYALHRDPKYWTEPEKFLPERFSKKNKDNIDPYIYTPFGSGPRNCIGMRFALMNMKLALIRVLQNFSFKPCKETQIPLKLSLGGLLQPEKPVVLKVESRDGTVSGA

Cn1c(Cc2nc(N3CCOCC3)cc(=O)[nH]2)nc2ccccc21
concentration at 24 h [1]: 0.7 µM
pIC50 [2]: 6.73
half-life [3]: 3.9 h
concentration at 1 h [4]: 16 µM
pIC50 [5]: 7.12
Papp [6]: 3 ×10⁻⁶ cm/s
Ratio (Nucleic Acid): 1
concentration at 0.5 h [7]: 28 µM
pIC50 [8]: 7.12
pIC50 [9]: < 5.00
AUC(0-t) [10]: 1950 ng·h/mL
Activity (Mus musculus [11]): Non-toxic
bioavailability [12]: 26%
Tlast (Mus musculus [13]): 24 h
inhibition in vivo at 300 mg/kg (Mus musculus [14]): > 50%
C0 [15]: 4870 ng/mL
concentration at 6 h [16]: 11 µM
Cmax [17]: 641 ng/mL
pIC50 [18]: 7.00
concentration at 6 h [19]: 3.6 µM
Activity (Mus musculus [20]): Non-toxic
pEC50 (Mus musculus [21]): 5.68
concentration at 24 h [22]: 1.7 µM
clearance [23]: 51.7 mL/min/kg
Tlast (Mus musculus [24]): 24 h
solubility thermodynamic at 16 h [25]: 65 µM (≈ 21.1 µg/mL)
Drug uptake (Plasma [26]): Active
pIC50 [27]: < 5.00
pIC50 [28]: 7.07
pIC50 [29]: < 5.00
concentration at 1 h [30]: 22 µM
concentration at 3 h [31]: 8 µM
pIC50 (Cytochrome P450 3A4): < 4.40
AUC(0-t) [32]: 846 ng·h/mL
AUC(0-t) at 24 h [33]: 1950 ng·h/mL
Drug uptake (Plasma [34]): Active
Tmax [35]: 0.5 h
half-life [36]: 4.4 h
pIC50 [37]: < 5.00
concentration at 0.5 h [38]: 13 µM
pIC50 [39]: < 5.00

Source: ChEMBL document CHEMBL2062364, “Discovery and optimization of new benzimidazole- and benzoxazole-pyrimidone selective PI3Kβ inhibitors for the treatment of phosphatase and TENsin homologue (PTEN)-deficient cancers” (J Med Chem, 2012)
